Assay results as given in patent US10745383B2, “1,3,5-triazine derivative and method of using same” (CHIA TAI TIANQING PHARMACEUTICAL GROUP CO., LTD., priority 2015, dated 2020).

Assays:
[1] = Pharmacokinetic parameters in rats after a single intragastric dose; format: in vivo; conditions: for AUC(0-inf) / Cmax / Tmax / half-life: rat, po, male rats, intragastric, single dose 5 mg/kg, plasma
Method: Healthy male adult rats (7-9 weeks old) were used in this study. Each group of animals (3 male rats) was intragastrically administered once at a single dose of 5 mg/kg. The animals in the intragastric administration group were fasted overnight before this study. The fasting time period was from 10 hours before administration to 4 hours after administration.
Blood samples were taken at 0.25, 0.5, 1, 2, 4, 6, 8 and 24 h after administration. The animals were anesthetized with isoflurane using an animal anesthesia machine, and then 0.3 mL whole blood samples were taken from the fundus venous plexus. The blood samples were placed in heparin anticoagulant tubes, and centrifuged for 5 min at 4° C. and 4000 rpm. The resulting plasmas were transferred to centrifuge tubes, and stored at −80° C. until analysis.
Verified LC-MS/MS method was used to analyze the plasma samples. Plasma concentration-time data of animals were analyzed using WinNonlin (Professional Edition, version 6.3; Pharsight Company) software. The non-compartmental model was introduced for concentration analysis. The pharmacokinetic parameters of the compounds were calculated.

IDH2 (R172K, 40-end) = IDH2 (R172K, 40-end) (Homo sapiens (Human), UniProt P48735, R172K); assay: IDH2 inhibitory activity determined by decrease of NADPH (diaphorase/resazurin fluorescence); format: biochemical; conditions: 120 min pre-incubation with enzyme and NADPH, 120 min reaction with α-KG
Method: The inhibitory activity of the compounds of the present application against IDH2 (R172K, 40-end) was determined by using the following method, which was expressed as IC50 values, i.e., the concentrations of the compounds required to achieve 50% inhibition of IDH2 activity.
The inhibitory activity of a compound against IDH2 (R172K, 40-end) was determined by the decrease of a helper factor NADPH. The test compound was pre-incubated with an enzyme and NADPH, and then a reaction was initiated by the addition of α-KG, and performed for 120 minutes under a linear condition. Then, the reaction was terminated by the addition of diaphorase (lipoamide dehydrogenase) and the corresponding substrate resazurin. Diaphorase terminated the IDH2m reaction by decreasing the available helper factor NADPH, which oxidized NADPH to NADP, and reduced resazurin to highly fluorescent resorufin. The amount of remaining helper factor NADPH after a specific reaction time was quantified via an easily detectable fluorophore.
Specifically, 2.5 μl of a 3-fold gradient diluted test compound was added to a 384-well plate, and then 5 μl of a reaction buffer (20 mM Tris-HCl, PH7.5; 150 mM NaCl; 10 mM MgCl2; 10 mM MnCl2; 0.4 mg/ml BSA and 2 mM DTT) containing 80 nM IDH2 (R172K, 40-end) and 40 μM NADPH was added. Then, the resulting test mixture was incubated for 120 minutes at a temperature of 23° C., and then 2.5 μl of the reaction buffer containing 4 mM α-KG was added to initiate the reaction. After incubating for 120 minutes at room temperature, 5 μl of a termination mixture (0.4 U/ml diaphorase and 40 μM resazurin) prepared with the reaction buffer was added to convert resazurin to resorufin to determine the remaining NADPH. After incubating for 10 minutes at a temperature of 23° C., a fluorescence value was determined through Flexstation 3 at Ex535/Em595.

[2] = rats, same dose (5 mg/kg intragastric)

Sequence of IDH2 (R172K, 40-end) (P48735 40-452 R172K): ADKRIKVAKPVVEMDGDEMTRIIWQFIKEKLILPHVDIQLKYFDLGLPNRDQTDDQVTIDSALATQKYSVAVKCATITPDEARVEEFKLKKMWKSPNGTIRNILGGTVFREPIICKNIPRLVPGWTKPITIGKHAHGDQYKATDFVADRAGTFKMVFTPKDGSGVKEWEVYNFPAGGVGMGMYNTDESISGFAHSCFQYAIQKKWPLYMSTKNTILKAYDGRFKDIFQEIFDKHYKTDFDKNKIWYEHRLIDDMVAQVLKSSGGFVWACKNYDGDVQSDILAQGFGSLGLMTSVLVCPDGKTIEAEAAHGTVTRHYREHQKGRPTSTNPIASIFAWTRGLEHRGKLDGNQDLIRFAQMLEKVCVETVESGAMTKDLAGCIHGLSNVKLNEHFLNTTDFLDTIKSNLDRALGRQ

CC(C)(O)CNc1nc(Nc2ccnc(C(F)(F)F)c2)nc(-c2cccc(C(F)(F)F)n2)n1 [AG-221, reference compound]
AUC(0-inf) [1]: 5380 ng·h/mL | Cmax [1]: 479 ng/mL | Tmax [1]: 4 h | half-life [1]: 3.73 h

CCONc1nc(Nc2ccnc(C(F)(F)F)c2)nc(-c2cccc(C(F)(F)F)n2)n1 [Example 1, 4-(ethoxyamino)-6-(6-(trifluoromethyl)pyridin-2-yl)-N-(2-(trifluoromethyl)pyridin-4-yl)-1,3,5-triazin-2-amine]
IC50 (IDH2 (R172K, 40-end)): 22.4 nM

CC(C)(C)ONc1nc(Nc2ccnc(C(F)(F)F)c2)nc(-c2cccc(C(F)(F)F)n2)n1 [Example 3, 4-(tert-butoxyamino)-6-(6-(trifluoromethyl)pyridin-2-yl)-N-(2-(trifluoromethyl)pyridin-4-yl)-1,3,5-triazin-2-amine]
AUC(0-inf) [1]: 10800 ng·h/mL | Cmax [1]: 589 ng/mL | Tmax [1]: 5 h | half-life [1]: 12 h | half-life compared with AG-221 [1, 2]: longer half-life | metabolism in vivo compared with AG-221 [1, 2]: better metabolism in vivo | plasma concentration compared with AG-221 [1, 2]: higher plasma concentration | IC50 (IDH2 (R172K, 40-end)): 31.7 nM

FC(F)(F)c1cc(Nc2nc(NOCC3CC3)nc(-c3cccc(C(F)(F)F)n3)n2)ccn1 [Example 4, 4-((cyclopropylmethoxy)amino)-6-(6-(trifluoromethyl)pyridin-2-yl)-N-(2-(trifluoromethyl)pyridin-4-yl)-1,3,5-triazin-2-amine]
IC50 (IDH2 (R172K, 40-end)): 38.2 nM

CC(C)(O)CONc1nc(Nc2ccnc(C(F)(F)F)c2)nc(-c2cccc(C(F)(F)F)n2)n1 [Example 6, 2-methyl-1-(((4-(6-(trifluoromethyl)pyridin-2-yl)-6-((2-(trifluoromethyl)pyridin-4-yl)amino)-1,3,5-triazin-2-yl)amino)oxy)propan-2-ol]
IC50 (IDH2 (R172K, 40-end)): 46.9 nM

CC(C)(CO)ONc1nc(Nc2ccnc(C(F)(F)F)c2)nc(-c2cccc(C(F)(F)F)n2)n1 [Example 7, 2-methyl-2-(((4-(6-(trifluoromethyl)pyridin-2-yl)-6-((2-(trifluoromethyl)pyridin-4-yl)amino)-1,3,5-triazin-2-yl)amino)oxy)propan-1-ol]
IC50 (IDH2 (R172K, 40-end)): 154 nM

FC(F)(F)c1cc(Nc2nc(NOCc3ccccc3)nc(-c3cccc(C(F)(F)F)n3)n2)ccn1 [Example 8, 4-((benzyloxy)amino)-6-(6-(trifluoromethyl)pyridin-2-yl)-N-(2-(trifluoromethyl)pyridin-4-yl)-1,3,5-triazin-2-amine]
IC50 (IDH2 (R172K, 40-end)): 239 nM

CC(C)(C)ONc1nc(Nc2ccnc(C(F)(F)F)c2)nc(-c2ccccc2)n1 [Example 10, 4-(tert-butoxyamino)-6-phenyl-N-(2-(trifluoromethyl)pyridin-4-yl)-1,3,5-triazin-2-amine]
IC50 (IDH2 (R172K, 40-end)): 51.4 nM
